Source: US10765114B2, “4-amino-6-(pyridyl and 2-substitutedphenyl)-picolinates and 6-amino-2-(pyridyl and 2-substitutedphenyl)-pyrimidine-4-carboxylates and their use as herbicides” (Dow AgroSciences LLC, priority 2013, dated 2020)

system: not given; test: not given; settings: not given

melting point [°C]	Compound
144 to 146	COC(=O)c1nc(-c2c(F)cc(Cl)c(F)c2C)cc(N)c1Cl [Compound 38, methyl 4-amino-3-chloro-6-(4-chloro-3,6-difluoro-2-methylphenyl)picolinate]

system: Key Broadleaf Weed and Crop Species; test: Post-Emergent Test II (Table 5); assay type: in vivo; settings: Abutilon theophrasti, post-emergence, 336 h, ABUTH: velvetleaf (Abutilon theophrasti), application rate 70 (kg ai/ha; footnote: g ai/ha), read-out: Visual Growth Reduction (%) 14 Days After Application ABUTH
In short: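 Visual injury ratings (0 = no injury, 100 = complete kill) taken 14 days after treatment, relative to untreated controls. Compounds, in an acetone/DMSO aqueous carrier with crop oil and surfactant, were applied by track sprayer at 187 L/ha, in a twofold dilution series from the top rate, to plants at the first to second true-leaf stage.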

Compound	pest or weed control at 70 g/ha [%]
COC(=O)c1nc(-c2c(F)cc(Cl)c(F)c2C)cc(N)c1Cl [Compound 38, methyl 4-amino-3-chloro-6-(4-chloro-3,6-difluoro-2-methylphenyl)picolinate]	95 to 100

same assay, conditions: Abutilon theophrasti, post-emergence, 336 h, ABUTH: velvetleaf (Abutilon theophrasti), application rate 140 (kg ai/ha; footnote: g ai/ha), read-out: Visual Growth Reduction (%) 14 Days After Application ABUTH

Compound	pest or weed control at 140 g/ha [%]
COC(=O)c1nc(-c2c(F)cc(Cl)c(F)c2C)cc(N)c1Cl [Compound 38, methyl 4-amino-3-chloro-6-(4-chloro-3,6-difluoro-2-methylphenyl)picolinate]	95 to 100

same assay, conditions: Amaranthus retroflexus, post-emergence, 336 h, AMARE: redroot pigweed (Amaranthus retroflexus), application rate 70 (kg ai/ha; footnote: g ai/ha), read-out: Visual Growth Reduction (%) 14 Days After Application AMARE

Compound	pest or weed control at 70 g/ha [%]
COC(=O)c1nc(-c2c(F)cc(Cl)c(F)c2C)cc(N)c1Cl [Compound 38, methyl 4-amino-3-chloro-6-(4-chloro-3,6-difluoro-2-methylphenyl)picolinate]	95 to 100

same assay, conditions: Amaranthus retroflexus, post-emergence, 336 h, AMARE: redroot pigweed (Amaranthus retroflexus), application rate 140 (kg ai/ha; footnote: g ai/ha), read-out: Visual Growth Reduction (%) 14 Days After Application AMARE

Compound	pest or weed control at 140 g/ha [%]
COC(=O)c1nc(-c2c(F)cc(Cl)c(F)c2C)cc(N)c1Cl [Compound 38, methyl 4-amino-3-chloro-6-(4-chloro-3,6-difluoro-2-methylphenyl)picolinate]	95 to 100

same assay, conditions: Brassica napus, post-emergence, 336 h, BRSSS: oilseed rape, canola (Brassica napus), application rate 70 (kg ai/ha; footnote: g ai/ha), read-out: Visual Growth Reduction (%) 14 Days After Application BRSSS

Compound	pest or weed control at 70 g/ha [%]
COC(=O)c1nc(-c2c(F)cc(Cl)c(F)c2C)cc(N)c1Cl [Compound 38, methyl 4-amino-3-chloro-6-(4-chloro-3,6-difluoro-2-methylphenyl)picolinate]	95 to 100

same assay, conditions: Brassica napus, post-emergence, 336 h, BRSSS: oilseed rape, canola (Brassica napus), application rate 140 (kg ai/ha; footnote: g ai/ha), read-out: Visual Growth Reduction (%) 14 Days After Application BRSSS

Compound	pest or weed control at 140 g/ha [%]
COC(=O)c1nc(-c2c(F)cc(Cl)c(F)c2C)cc(N)c1Cl [Compound 38, methyl 4-amino-3-chloro-6-(4-chloro-3,6-difluoro-2-methylphenyl)picolinate]	95 to 100

same assay, conditions: Chenopodium album, post-emergence, 336 h, CHEAL: lambsquarters (Chenopodium album), application rate 70 (kg ai/ha; footnote: g ai/ha), read-out: Visual Growth Reduction (%) 14 Days After Application CHEAL

Compound	pest or weed control at 70 g/ha [%]
COC(=O)c1nc(-c2c(F)cc(Cl)c(F)c2C)cc(N)c1Cl [Compound 38, methyl 4-amino-3-chloro-6-(4-chloro-3,6-difluoro-2-methylphenyl)picolinate]	85 to 94

same assay, conditions: Chenopodium album, post-emergence, 336 h, CHEAL: lambsquarters (Chenopodium album), application rate 140 (kg ai/ha; footnote: g ai/ha), read-out: Visual Growth Reduction (%) 14 Days After Application CHEAL

Compound	pest or weed control at 140 g/ha [%]
COC(=O)c1nc(-c2c(F)cc(Cl)c(F)c2C)cc(N)c1Cl [Compound 38, methyl 4-amino-3-chloro-6-(4-chloro-3,6-difluoro-2-methylphenyl)picolinate]	95 to 100

same assay, conditions: Euphorbia heterophylla, post-emergence, 336 h, EPHHL: wild poinsettia (Euphorbia heterophylla), application rate 70 (kg ai/ha; footnote: g ai/ha), read-out: Visual Growth Reduction (%) 14 Days After Application EPHHL

Compound	pest or weed control at 70 g/ha [%]
COC(=O)c1nc(-c2c(F)cc(Cl)c(F)c2C)cc(N)c1Cl [Compound 38, methyl 4-amino-3-chloro-6-(4-chloro-3,6-difluoro-2-methylphenyl)picolinate]	30 to 44

same assay, conditions: Euphorbia heterophylla, post-emergence, 336 h, EPHHL: wild poinsettia (Euphorbia heterophylla), application rate 140 (kg ai/ha; footnote: g ai/ha), read-out: Visual Growth Reduction (%) 14 Days After Application EPHHL

Compound	pest or weed control at 140 g/ha [%]
COC(=O)c1nc(-c2c(F)cc(Cl)c(F)c2C)cc(N)c1Cl [Compound 38, methyl 4-amino-3-chloro-6-(4-chloro-3,6-difluoro-2-methylphenyl)picolinate]	45 to 59

same assay, conditions: Helianthus annuus, post-emergence, 336 h, HELAN: sunflower (Helianthus annuus), application rate 70 (kg ai/ha; footnote: g ai/ha), read-out: Visual Growth Reduction (%) 14 Days After Application HELAN

Compound	pest or weed control at 70 g/ha [%]
COC(=O)c1nc(-c2c(F)cc(Cl)c(F)c2C)cc(N)c1Cl [Compound 38, methyl 4-amino-3-chloro-6-(4-chloro-3,6-difluoro-2-methylphenyl)picolinate]	75 to 84

same assay, conditions: Helianthus annuus, post-emergence, 336 h, HELAN: sunflower (Helianthus annuus), application rate 140 (kg ai/ha; footnote: g ai/ha), read-out: Visual Growth Reduction (%) 14 Days After Application HELAN

Compound	pest or weed control at 140 g/ha [%]
COC(=O)c1nc(-c2c(F)cc(Cl)c(F)c2C)cc(N)c1Cl [Compound 38, methyl 4-amino-3-chloro-6-(4-chloro-3,6-difluoro-2-methylphenyl)picolinate]	95 to 100

same assay, conditions: Viola tricolor, post-emergence, 336 h, VIOTR: wild pansy (Viola tricolor), application rate 70 (kg ai/ha; footnote: g ai/ha), read-out: Visual Growth Reduction (%) 14 Days After Application VIOTR

Compound	pest or weed control at 70 g/ha [%]
COC(=O)c1nc(-c2c(F)cc(Cl)c(F)c2C)cc(N)c1Cl [Compound 38, methyl 4-amino-3-chloro-6-(4-chloro-3,6-difluoro-2-methylphenyl)picolinate]	75 to 84

same assay, conditions: Viola tricolor, post-emergence, 336 h, VIOTR: wild pansy (Viola tricolor), application rate 140 (kg ai/ha; footnote: g ai/ha), read-out: Visual Growth Reduction (%) 14 Days After Application VIOTR

Compound	pest or weed control at 140 g/ha [%]
COC(=O)c1nc(-c2c(F)cc(Cl)c(F)c2C)cc(N)c1Cl [Compound 38, methyl 4-amino-3-chloro-6-(4-chloro-3,6-difluoro-2-methylphenyl)picolinate]	85 to 94
